# Reference: ChEMBL document CHEMBL5291721, “A preclinical secondary pharmacology resource illuminates target-adverse drug reaction associations of marketed drugs” (Nat Commun, 2023)
# Key:
# [1] = molecular target: 5-hydroxytryptamine receptor 2B (Homo sapiens, UniProt P41595)
# [2] = molecular target: D(1A) dopamine receptor (Homo sapiens, UniProt P21728); assay type: functional, cell-based
# [3] = molecular target: Sodium-dependent serotonin transporter (Homo sapiens, UniProt P31645)
# [4] = molecular target: T1, Substance-K receptor (Homo sapiens, UniProt P21452)
# T1 sequence (P21452 whole entry): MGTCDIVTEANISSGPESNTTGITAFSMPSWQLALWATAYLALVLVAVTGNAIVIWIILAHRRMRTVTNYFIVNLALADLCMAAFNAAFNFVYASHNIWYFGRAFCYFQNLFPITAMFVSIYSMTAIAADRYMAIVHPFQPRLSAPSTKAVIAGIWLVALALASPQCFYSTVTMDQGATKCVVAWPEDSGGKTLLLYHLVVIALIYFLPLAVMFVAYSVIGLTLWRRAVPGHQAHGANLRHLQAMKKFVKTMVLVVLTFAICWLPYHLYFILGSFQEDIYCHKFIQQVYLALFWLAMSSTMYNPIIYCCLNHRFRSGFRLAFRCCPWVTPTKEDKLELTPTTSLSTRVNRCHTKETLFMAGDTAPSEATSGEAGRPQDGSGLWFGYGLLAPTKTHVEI
# [5] = molecular target: Voltage-dependent L-type calcium channel subunit alpha-1C (Homo sapiens, UniProt Q13936); assay type: functional, cell-based
# Chain of Voltage-dependent L-type calcium channel subunit alpha-1C (Q13936 whole entry): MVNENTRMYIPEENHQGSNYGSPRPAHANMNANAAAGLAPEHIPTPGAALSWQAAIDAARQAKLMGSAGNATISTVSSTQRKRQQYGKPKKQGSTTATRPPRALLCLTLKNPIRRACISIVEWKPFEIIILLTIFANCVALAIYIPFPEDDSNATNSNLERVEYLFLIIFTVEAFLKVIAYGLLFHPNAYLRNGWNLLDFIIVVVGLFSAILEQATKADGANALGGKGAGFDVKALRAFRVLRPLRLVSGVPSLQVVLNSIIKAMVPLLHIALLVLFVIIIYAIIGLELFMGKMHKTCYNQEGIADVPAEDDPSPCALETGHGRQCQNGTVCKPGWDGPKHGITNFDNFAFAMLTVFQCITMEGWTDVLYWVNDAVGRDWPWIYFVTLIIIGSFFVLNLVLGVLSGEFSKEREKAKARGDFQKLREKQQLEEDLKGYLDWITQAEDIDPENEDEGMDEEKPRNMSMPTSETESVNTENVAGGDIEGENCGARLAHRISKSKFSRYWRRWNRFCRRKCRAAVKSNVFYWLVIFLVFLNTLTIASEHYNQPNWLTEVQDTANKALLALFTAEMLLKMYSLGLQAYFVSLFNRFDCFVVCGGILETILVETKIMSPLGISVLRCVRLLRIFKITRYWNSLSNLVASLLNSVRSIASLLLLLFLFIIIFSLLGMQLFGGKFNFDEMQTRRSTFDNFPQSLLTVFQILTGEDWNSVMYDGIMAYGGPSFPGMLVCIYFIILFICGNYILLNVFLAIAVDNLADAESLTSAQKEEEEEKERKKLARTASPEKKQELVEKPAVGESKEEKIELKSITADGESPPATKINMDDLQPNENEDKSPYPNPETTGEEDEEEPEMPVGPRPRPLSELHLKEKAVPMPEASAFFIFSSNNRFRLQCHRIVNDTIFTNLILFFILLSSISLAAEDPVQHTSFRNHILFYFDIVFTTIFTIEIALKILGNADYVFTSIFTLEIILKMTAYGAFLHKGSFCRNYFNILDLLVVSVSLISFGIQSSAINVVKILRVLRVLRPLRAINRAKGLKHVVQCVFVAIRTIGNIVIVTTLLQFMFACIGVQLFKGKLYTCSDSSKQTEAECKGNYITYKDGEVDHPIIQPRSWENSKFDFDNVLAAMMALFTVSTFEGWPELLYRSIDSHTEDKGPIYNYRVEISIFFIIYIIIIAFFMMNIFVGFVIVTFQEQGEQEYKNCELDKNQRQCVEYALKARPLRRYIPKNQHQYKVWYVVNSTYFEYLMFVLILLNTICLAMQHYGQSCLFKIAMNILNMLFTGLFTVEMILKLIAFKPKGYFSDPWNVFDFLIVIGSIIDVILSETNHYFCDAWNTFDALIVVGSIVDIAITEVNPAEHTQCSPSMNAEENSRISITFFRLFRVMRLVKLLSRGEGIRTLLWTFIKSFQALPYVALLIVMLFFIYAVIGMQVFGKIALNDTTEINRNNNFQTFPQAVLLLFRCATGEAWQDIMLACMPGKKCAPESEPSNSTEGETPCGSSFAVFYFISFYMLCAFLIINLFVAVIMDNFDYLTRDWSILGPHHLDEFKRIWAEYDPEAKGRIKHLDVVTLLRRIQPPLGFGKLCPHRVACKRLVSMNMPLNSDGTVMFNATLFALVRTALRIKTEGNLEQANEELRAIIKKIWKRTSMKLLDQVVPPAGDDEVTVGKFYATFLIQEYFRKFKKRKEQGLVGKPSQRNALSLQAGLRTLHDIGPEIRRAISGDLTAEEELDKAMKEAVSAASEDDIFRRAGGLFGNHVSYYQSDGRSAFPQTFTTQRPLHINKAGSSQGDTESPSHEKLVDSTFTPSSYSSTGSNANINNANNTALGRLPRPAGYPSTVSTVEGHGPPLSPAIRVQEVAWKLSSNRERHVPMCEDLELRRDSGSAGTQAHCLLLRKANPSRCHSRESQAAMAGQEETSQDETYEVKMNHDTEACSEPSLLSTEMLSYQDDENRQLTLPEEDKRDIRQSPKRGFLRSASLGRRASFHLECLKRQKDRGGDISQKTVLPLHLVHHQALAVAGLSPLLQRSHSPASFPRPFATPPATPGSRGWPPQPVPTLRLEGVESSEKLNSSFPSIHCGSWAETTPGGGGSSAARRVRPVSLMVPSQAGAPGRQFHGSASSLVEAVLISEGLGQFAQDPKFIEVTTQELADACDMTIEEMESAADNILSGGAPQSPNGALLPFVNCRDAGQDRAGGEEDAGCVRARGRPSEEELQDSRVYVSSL
# [6] = molecular target: T2, Type-2 angiotensin II receptor (Homo sapiens, UniProt P50052); assay type: functional
# T2 sequence (P50052 whole entry): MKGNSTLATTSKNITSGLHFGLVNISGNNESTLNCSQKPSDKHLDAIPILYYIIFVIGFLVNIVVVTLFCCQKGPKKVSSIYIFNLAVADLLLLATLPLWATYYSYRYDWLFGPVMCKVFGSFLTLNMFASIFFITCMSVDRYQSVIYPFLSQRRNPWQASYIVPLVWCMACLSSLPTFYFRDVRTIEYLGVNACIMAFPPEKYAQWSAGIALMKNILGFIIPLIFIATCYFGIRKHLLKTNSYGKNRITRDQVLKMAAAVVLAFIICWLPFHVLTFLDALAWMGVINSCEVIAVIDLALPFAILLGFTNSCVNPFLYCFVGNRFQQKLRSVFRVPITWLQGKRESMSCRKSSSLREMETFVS
# [7] = molecular target: T3, Prostaglandin G/H synthase 1 (Rattus norvegicus, UniProt Q63921); assay type: functional
# T3 sequence (Q63921 whole entry): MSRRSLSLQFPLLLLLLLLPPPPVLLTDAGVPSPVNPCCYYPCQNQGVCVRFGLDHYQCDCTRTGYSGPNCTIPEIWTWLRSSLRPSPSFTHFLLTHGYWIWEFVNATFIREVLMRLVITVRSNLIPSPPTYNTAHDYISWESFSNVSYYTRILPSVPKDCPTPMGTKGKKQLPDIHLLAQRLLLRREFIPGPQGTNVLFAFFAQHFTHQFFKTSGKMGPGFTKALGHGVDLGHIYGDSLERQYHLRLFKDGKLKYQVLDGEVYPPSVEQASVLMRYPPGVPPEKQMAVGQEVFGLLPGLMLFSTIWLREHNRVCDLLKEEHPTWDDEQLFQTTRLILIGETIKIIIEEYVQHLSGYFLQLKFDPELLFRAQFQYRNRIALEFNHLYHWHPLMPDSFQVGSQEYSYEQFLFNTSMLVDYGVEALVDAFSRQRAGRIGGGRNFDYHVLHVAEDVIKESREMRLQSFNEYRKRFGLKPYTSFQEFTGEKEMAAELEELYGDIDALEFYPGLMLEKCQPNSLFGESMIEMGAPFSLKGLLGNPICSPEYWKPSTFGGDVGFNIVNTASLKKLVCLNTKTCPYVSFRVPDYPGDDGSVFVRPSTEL
# [8] = molecular target: T4, Muscarinic acetylcholine receptor M1 (Homo sapiens, UniProt P11229)
# T4 sequence (P11229 whole entry): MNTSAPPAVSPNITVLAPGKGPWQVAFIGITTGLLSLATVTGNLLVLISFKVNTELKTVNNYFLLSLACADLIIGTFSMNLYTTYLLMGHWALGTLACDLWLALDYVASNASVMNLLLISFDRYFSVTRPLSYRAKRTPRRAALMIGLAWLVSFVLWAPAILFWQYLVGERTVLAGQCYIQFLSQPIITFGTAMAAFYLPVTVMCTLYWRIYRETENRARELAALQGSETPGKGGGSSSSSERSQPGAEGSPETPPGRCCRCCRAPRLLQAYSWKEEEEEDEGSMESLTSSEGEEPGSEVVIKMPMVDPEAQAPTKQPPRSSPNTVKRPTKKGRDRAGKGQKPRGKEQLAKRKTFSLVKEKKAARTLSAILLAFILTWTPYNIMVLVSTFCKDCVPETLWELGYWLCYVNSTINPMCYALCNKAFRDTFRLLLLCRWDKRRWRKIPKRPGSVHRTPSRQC
# [9] = molecular target: T5, Type-1 angiotensin II receptor (Homo sapiens, UniProt P30556)
# T5 sequence (P30556 whole entry): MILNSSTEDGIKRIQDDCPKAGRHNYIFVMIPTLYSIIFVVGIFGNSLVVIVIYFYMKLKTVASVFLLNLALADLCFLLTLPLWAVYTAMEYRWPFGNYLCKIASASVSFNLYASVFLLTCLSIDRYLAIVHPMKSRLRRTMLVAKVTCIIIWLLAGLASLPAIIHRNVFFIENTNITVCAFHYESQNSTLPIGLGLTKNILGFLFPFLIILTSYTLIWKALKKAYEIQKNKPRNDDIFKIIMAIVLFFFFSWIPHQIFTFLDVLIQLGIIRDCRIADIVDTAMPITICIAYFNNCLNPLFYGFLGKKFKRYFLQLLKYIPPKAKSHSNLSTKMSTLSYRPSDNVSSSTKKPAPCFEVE
# [10] = molecular target: T5, Type-1 angiotensin II receptor; remark: listed apart in the source
# [11] = molecular target: T2, Type-2 angiotensin II receptor; assay type: functional; remark: listed apart in the source
# [12] = molecular target: T4, Muscarinic acetylcholine receptor M1; assay type: functional, cell-based
# [13] = molecular target: T4, Muscarinic acetylcholine receptor M1; assay type: functional, cell-based; remark: listed apart in the source
# [14] = molecular target: Hydroxycarboxylic acid receptor 2 (Homo sapiens, UniProt Q8TDS4)
# Chain of Hydroxycarboxylic acid receptor 2 (Q8TDS4 whole entry): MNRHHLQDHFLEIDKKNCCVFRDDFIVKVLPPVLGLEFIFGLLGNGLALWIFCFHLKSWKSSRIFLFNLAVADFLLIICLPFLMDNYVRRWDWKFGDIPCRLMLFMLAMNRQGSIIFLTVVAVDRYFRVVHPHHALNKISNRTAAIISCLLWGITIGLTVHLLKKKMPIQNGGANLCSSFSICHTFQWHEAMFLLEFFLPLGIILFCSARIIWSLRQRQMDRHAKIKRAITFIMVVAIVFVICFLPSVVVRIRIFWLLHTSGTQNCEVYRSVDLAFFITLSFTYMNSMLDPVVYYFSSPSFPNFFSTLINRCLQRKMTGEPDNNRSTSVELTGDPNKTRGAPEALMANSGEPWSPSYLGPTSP
# Also: assay procedure not described here.
# Chain of D(1A) dopamine receptor (P21728 whole entry): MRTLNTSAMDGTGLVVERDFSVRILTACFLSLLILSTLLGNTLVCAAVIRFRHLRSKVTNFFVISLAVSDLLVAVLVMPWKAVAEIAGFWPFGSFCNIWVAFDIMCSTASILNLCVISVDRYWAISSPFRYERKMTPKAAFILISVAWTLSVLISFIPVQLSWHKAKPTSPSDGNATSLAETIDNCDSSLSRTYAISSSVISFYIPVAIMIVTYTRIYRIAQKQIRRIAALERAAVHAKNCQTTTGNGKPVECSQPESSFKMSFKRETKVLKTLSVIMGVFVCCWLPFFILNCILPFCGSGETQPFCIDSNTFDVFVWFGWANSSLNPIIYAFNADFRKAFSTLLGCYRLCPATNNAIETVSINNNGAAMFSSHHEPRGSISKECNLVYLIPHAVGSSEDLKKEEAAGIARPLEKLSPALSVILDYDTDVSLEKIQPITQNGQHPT
# Chain of Sodium-dependent serotonin transporter (P31645 whole entry): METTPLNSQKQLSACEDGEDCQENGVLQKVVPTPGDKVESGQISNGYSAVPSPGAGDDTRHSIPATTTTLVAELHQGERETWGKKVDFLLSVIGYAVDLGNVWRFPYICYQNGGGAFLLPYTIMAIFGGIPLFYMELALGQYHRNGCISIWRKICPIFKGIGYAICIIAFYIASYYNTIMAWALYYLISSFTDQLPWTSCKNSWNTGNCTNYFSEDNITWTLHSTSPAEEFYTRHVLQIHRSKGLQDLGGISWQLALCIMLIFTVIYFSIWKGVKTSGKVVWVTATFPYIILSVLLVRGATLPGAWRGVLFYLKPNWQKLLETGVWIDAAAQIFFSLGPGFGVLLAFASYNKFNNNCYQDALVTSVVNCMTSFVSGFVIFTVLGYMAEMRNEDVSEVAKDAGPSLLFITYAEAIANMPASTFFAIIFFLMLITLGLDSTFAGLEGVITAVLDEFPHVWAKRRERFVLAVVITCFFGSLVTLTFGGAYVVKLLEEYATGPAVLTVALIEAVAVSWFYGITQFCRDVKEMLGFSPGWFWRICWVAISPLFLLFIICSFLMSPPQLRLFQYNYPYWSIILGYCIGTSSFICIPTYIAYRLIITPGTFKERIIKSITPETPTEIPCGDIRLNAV
# Chain of 5-hydroxytryptamine receptor 2B (P41595 whole entry): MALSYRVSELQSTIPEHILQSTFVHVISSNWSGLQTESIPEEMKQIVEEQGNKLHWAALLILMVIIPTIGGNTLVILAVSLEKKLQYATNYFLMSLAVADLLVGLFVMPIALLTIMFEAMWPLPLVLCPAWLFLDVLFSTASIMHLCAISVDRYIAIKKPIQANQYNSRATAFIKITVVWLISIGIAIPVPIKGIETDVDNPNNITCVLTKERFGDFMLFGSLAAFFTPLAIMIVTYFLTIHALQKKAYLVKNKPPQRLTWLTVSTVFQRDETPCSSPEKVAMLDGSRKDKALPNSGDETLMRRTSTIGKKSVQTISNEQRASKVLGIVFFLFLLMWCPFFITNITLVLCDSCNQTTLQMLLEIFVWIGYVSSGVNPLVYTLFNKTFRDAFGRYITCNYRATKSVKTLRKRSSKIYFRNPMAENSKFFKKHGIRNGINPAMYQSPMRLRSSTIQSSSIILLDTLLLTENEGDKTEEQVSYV
smiles,measurement,setting,value
CCCN[C@H]1CCc2nc(N)sc2C1 [PRAMIPEXOLE],AC50,[1],18.4 µM
Cc1cc(C(C)(C)C)cc(C)c1CC1=NCCN1 [XYLOMETAZOLINE],AC50,[2],> 30 µM
OC1(c2ccc(Cl)cc2)c2ccccc2C2=NCCN21 (stereo unspecified) [MAZINDOL],AC50,[3],0.23 µM
same,AC50,[4],> 10 µM
same,AC50,[5],> 50 µM
CN1CCN(C2=Nc3ccccc3Oc3ccc(Cl)cc32)CC1 [LOXAPINE],AC50,[4],> 10 µM
CC(CCc1ccc(O)cc1)NCCc1ccc(O)c(O)c1 (stereo unspecified) [DOBUTAMINE],AC50,[6],> 100 µM
Clc1ccc(C(Cn2ccnc2)OCc2ccsc2Cl)c(Cl)c1 (stereo unspecified) [TIOCONAZOLE],AC50,[7],14 µM
O=[N+]([O-])c1ccc(O)c2ncccc12 [NITROXOLINE],AC50,[8],> 30 µM
CC(C)NCC(O)c1ccc(O)c(O)c1 (stereo unspecified) [ISOPROTERENOL],AC50,[9],> 100 µM
CCCc1nc(C(C)(C)O)c(C(=O)O)n1Cc1ccc(-c2ccccc2-c2nnn[nH]2)cc1 [OLMESARTAN],AC50,[10],0.0008 µM
same,AC50,[11],54 µM
CC(C)COCC(CN(Cc1ccccc1)c1ccccc1)N1CCCC1 (stereo unspecified) [BEPRIDIL],AC50,[7],> 30 µM
CC1OC2(CS1)CN1CCC2CC1 (stereo unspecified) [CEVIMELINE],AC50,[12],19 µM
same,AC50,[13],> 30 µM
CCC(=O)O[C@]1(C(=O)SCF)[C@H](C)C[C@H]2[C@@H]3C[C@H](F)C4=CC(=O)C=C[C@]4(C)[C@@]3(F)[C@@H](O)C[C@@]21C [FLUTICASONE PROPIONATE],AC50,[14],> 10 µM
